The values below come from patent US9737546B2, “Small molecules to enhance P53 activity” (THE REGENTS OF THE UNIVERSITY OF CALIFORNIA, priority 2013, dated 2017).

In one data set the target is p53 R175H (Homo sapiens, UniProt P04637, R175H). The conditions noted are these: cited from earlier work.
For data set [1], the system named is parental Saos-2 (p53^null) cells. Nature of the data set: Cell proliferation of parental Saos-2 (p53null) cells, CellTiter-Glo. Format: cell-based. Conditions: cultured 3 days, max. 200 μM, Zinc Leads Now compounds (FIG. 3A). The protocol:
FIG. 3A is a graph of reactivation activities of various compounds. Saos-2 cells expressing no p53 (p53^null), or expressing one of the cancer mutants p53-R175H or p53-G245S, were cultured for 3 days in the presence of different concentrations of compounds that had been selected from the Zinc Leads Now database, version of January, 2011, by the computational methods described below. The p53 reactivation compounds shown correspond to FIG. 1. Cell numbers were measured using the CellTiter-Glo® reagent. […] Data are presented as the standard error of the mean (n=3). Note that as of this writing eight compounds have been tested on the R175H mutant only (32CTM, 28NZ6, 27TGR, 27VFS, 35LWZ, 36EB5, 32LDE, and 32JCB).
FIG. 3B is a graph of reactivation activities of various compounds. Experimental conditions are as in FIG. 3A, but compounds were selected from the Chembridge Express Pick Library 2012 database, by the computational methods described below. The p53 reactivation compounds shown correspond to FIG. 2.
The basis for our primary assay is that cancer cells cannot tolerate active p53, stop proliferation, and eventually die. […]
(§1) Our primary screen is the p53 cancer mutant R175H, which is the single most prevalent human cancer mutation. Active compounds were re-evaluated using an independent cell line expressing a different p53 cancer mutant, G245S.

The target of another data set is T1, p53 cancer mutant R175H (Homo sapiens, UniProt P04637, R175H).
T1 construct: expressed in transfected cells; host or cells: Saos-2 (p53null) human osteosarcoma cells
As to the kind of experiment: p53 reactivation assay (cell killing / proliferation arrest) in Saos-2 cells expressing p53 cancer mutant R175H. Format: cell-based. Conditions: 50 μM pre-heated PRIMA-1, 72 h, Saos-2 cells (FIG. 5). The protocol: (§2) FIG. 5 is a graph showing that PRIMA-1 acts through cysteine 124 in p53. p53null Saos-2 cells expressing wild type p53, or the indicated p53 mutants, were treated with 50 μM pre-heated PRIMA-1 (“+”, left bar) or the medium without PRIMA-1 (DMSO, “−”, right bar) for 72 h. The increase in cell number during 72 h of growth is shown. Standard deviations represent 4 independent samples (Wassman, et al., 2013).
(§3) The increase in cell number during 72 h of growth is shown. As expected, the p53 cancer mutant R175H was activated by PRIMA-1. Mutating cysteine 124 to alanine blocked PRIMA-1 induced cancer mutant reactivation.
The basis for our primary assay is that cancer cells cannot tolerate active p53, stop proliferation, and eventually die. Expression of functional p53 in p53null Saos-2 osteosarcoma cells blocks their proliferation; expression of p53 cancer mutants has no effect (Wassman et al., 2013) (FIG. 5). Importantly, compounds that reactivate p53 cancer mutants specifically block proliferation of Saos-2 cells expressing p53 cancer mutants, but have no effect on growth of p53null cells at the same concentration (FIG. 3). […]
as §1

Data set [2] concerns the target T2, R175H-p53 with A124 (cysteine 124 to alanine) (Homo sapiens, UniProt P04637, C124A/R175H).
T2 construct: expressed in transfected cells; host or cells: Saos-2 (p53null) human osteosarcoma cells
As to the kind of experiment: PRIMA-1 treatment of Saos-2 cells expressing R175H-p53 with cysteine 124 changed to alanine. Format: cell-based. The conditions noted are these: 50 μM pre-heated PRIMA-1, 72 h, Saos-2 cells (FIG. 5). The protocol: as §2
Although the region around residue C124 is enriched for cancer rescue mutations, changes in position 124 have never been found, nor were they predicted by our SVM classifier, to reactivate p53 cancer mutants. Indeed, directed saturation mutagenesis of position 124 in the context of the R175H p53 cancer mutation explored all single amino acid changes at C124 and confirmed the absence of any genetic mutation rescue activity at this position. We could therefore test the computer predictions for a role of C124 in covalent drug binding in vivo by changing C124 into alanine to prevent the hypothetical thiol-mediated link with MQ.
as §3

The next data set relates to p53 cancer mutants. Nature of the data set: p53-dependent cell killing (or proliferation arrest) in Saos-2 cells expressing p53 cancer mutants. Format: cell-based, human. The protocol:
FIG. 3C is a graph of dose response curves for compounds 33BAZ and 27UDP using four different p53 cancer mutants: R175H, G245S, R248W, and R273H. Experimental conditions are as in FIG. 3A.
FIG. 3D is a panel of graphs of broad spectrum activity for four other compounds using four different p53 cancer mutants: R175H, G245S, R248W, and R273H. Experimental conditions are as in FIG. 3C, but a single dose was assayed: 27VFS (20 μM), 35LWZ (50 μM), 27WT9 (10 μM), and 26RQZ (10 μM).
Our previous p53 reactivation assays focused on p53-driven expression of the canonical p53 target genes p21 and PUMA (Wassman et al., 2013). However, there is significant evidence that neither p21 nor PUMA expression predict p53 anti-tumor activity (Hock & Vousden, 2012; Li et al., 2012; Valente et al., 2013). Indeed, our results comparing effects of PRIMA-1 and stictic acid support this view. […] We now use p21 and PUMA expression as an independent transcription assay for p53 cancer mutant reactivation, but not the primary selection criterion. We changed to p53-dependent cell killing (or proliferation arrest) as our main measure of efficacy because our long-term goal is anti-tumor drugs. […]
as §1

The test system of data set [3] is p53-dependent reporter expression (p21 and PUMA promoter elements). Nature of the data set: p21 and PUMA expression / transcriptional reporter assay based on p21 and PUMA promoter elements. It counts as cell-based, human. Conditions: comparison of stictic acid and PRIMA-1. An excerpt: Our previous p53 reactivation assays focused on p53-driven expression of the canonical p53 target genes p21 and PUMA (Wassman et al., 2013). However, there is significant evidence that neither p21 nor PUMA expression predict p53 anti-tumor activity (Hock & Vousden, 2012; Li et al., 2012; Valente et al., 2013). Indeed, our results comparing effects of PRIMA-1 and stictic acid support this view. […] We now use p21 and PUMA expression as an independent transcription assay for p53 cancer mutant reactivation, but not the primary selection criterion. We changed to p53-dependent cell killing (or proliferation arrest) as our main measure of efficacy because our long-term goal is anti-tumor drugs.
An independent test for p53 cancer mutant reactivation is the well-established transcriptional reporter assay based on p21 and PUMA promoter elements (Wassman, et al., 2013). As above, the magnitude of reactivated p53-dependent transcription is not considered relevant for a compound's potency in cancer cell killing.
Background: A reporter such as luciferase makes a cellular process visible.

With `CC(=NNC(=S)N(C)C)c1ccccn1` [NSC319725], the “allele specificity of p53 mutant reactivation” value at p53 R175H is given as “R175H allele-specific”.

Turning to `C/C(=N\NC(=S)N1CCC1)c1ccccn1` [NSC319726], the “allele specificity of p53 mutant reactivation” value at p53 R175H was “R175H allele-specific”.

Turning to `O=C1C2CCN(CC2)C1(CO)CO` [PRIMA-1], the “highest compound concentration that did not significantly affect cell proliferation of the parental Saos-2 (p53null) cells” value in data set [1] is 50 µM. For the same compound, the “effect on cells expressing the inactive R175H p53” value at p53 cancer mutant R175H was “reactivation and induction of cell death”. Also, in data set [2], the “PRIMA-1 effects after introduction of A124 in R175H-p53” value is given as “completely eliminated”. In addition, the “p53-dependent killing/arresting of cells” value in the data set with p53 cancer mutants (comparison of PRIMA-1 and stictic acid) is “considerably more potent”.

Take `COc1cc(C)c2c(c1C=O)Oc1c(c(C)c(O)c3c1C(O)OC3=O)OC2=O` (centres unmarked) [stictic acid]: in data set [3], the “restoring p21 and PUMA expression in p53 cancer mutants” value is on record as “significantly better than PRIMA-1”. The “p53 reactivation in biological assays” value with p53 cancer mutants (one of 45 screened NCI DTP compounds) is listed as “proved to be a p53 reactivation compound”.
